In PubChem BioAssay AID2060894 (Molecular Pharmacology Branch, DTP, NCI, 2025):

Test system: K12877-001-R-J1-PDC complex spheroid viability
Test: Anticancer human tumor K12877-001-R-J1-PDC patient-derived lung adenocarcinoma cell line growth inhibition [RAS]
Conditions: for IC50: curve of first compound; for viability, T/C: stronger effect = lower value; active = viability on the fitted dose curve at most 10% of control; inactive = the rest
In short: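 Agents were tested in combination matrices in half-log decrements from a top concentration at or near clinical Cmax (10 microM if undetermined). Targets were multi-cell spheroids of tumour lines plus HUVEC and MSC stromal cells.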
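Also: spheroids exposed to agents for one week before readout.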
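For viability, T/C in this document: tumour cells co-cultured with HUVEC and mesenchymal stem cells in spheroids.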

Nc1ccn(C2OC(CO)C(O)C2(F)F)c(=O)n1 (configuration not stated) + CCn1c(-c2cccnc2C(C)OC)c2c3cc(ccc31)N1CCOC(CC(NC(=O)C(C(C)C)N(C)C(=O)C3(F)CCN(C(=O)C#CC(C)(C)N(C)C)CC3)C(=O)N3CCCC(N3)C(=O)OCC(C)(C)C2)C1
active: viability, T/C (second compound 0.000949 µM, first compound 0.0316 µM) 4.44% | viability, T/C (second compound 0.000949 µM, first compound 0.1 µM) 3.87% | viability, T/C (second compound 0.000949 µM, first compound 0.316 µM) 3.37% | viability, T/C (second compound 0.000949 µM, first compound 1 µM) 4.46% | viability, T/C (second compound 0.003 µM, first compound 0.0316 µM) 4.22% | viability, T/C (second compound 0.003 µM, first compound 0.1 µM) 3.94% | viability, T/C (second compound 0.003 µM, first compound 0.316 µM) 5.22% | viability, T/C (second compound 0.003 µM, first compound 1 µM) 3.83% | viability, T/C (second compound 0.00949 µM, first compound 0.0316 µM) 5.4% | viability, T/C (second compound 0.00949 µM, first compound 0.1 µM) 4.58% | viability, T/C (second compound 0.00949 µM, first compound 0.316 µM) 3.59% | viability, T/C (second compound 0.00949 µM, first compound 1 µM) 3.51% | viability, T/C (second compound 0.03 µM, first compound 0.0316 µM) 3.17% | viability, T/C (second compound 0.03 µM, first compound 0.1 µM) 4.94% | viability, T/C (second compound 0.03 µM, first compound 0.316 µM) 4.16% | viability, T/C (second compound 0.03 µM, first compound 1 µM) 3.02% | viability, T/C (second compound 0.0949 µM, first compound 0.0316 µM) 5.2% | viability, T/C (second compound 0.0949 µM, first compound 0.1 µM) 3.34% | viability, T/C (second compound 0.0949 µM, first compound 0.316 µM) 2.8% | viability, T/C (second compound 0.0949 µM, first compound 1 µM) 3.38% | viability, T/C (second compound 0.3 µM, first compound 0.0316 µM) 3.46% | viability, T/C (second compound 0.3 µM, first compound 0.1 µM) 2.66% | viability, T/C (second compound 0.3 µM, first compound 0.316 µM) 3.3% | viability, T/C (second compound 0.3 µM, first compound 1 µM) 3.43%
0.0145 µM: IC50 (second compound 0.000949 µM)
inactive: viability, T/C (second compound 0.000949 µM, first compound 0.00316 µM) 83.5% | viability, T/C (second compound 0.000949 µM, first compound 0.01 µM) 71.9% | viability, T/C (second compound 0.003 µM, first compound 0.00316 µM) 82.3% | viability, T/C (second compound 0.003 µM, first compound 0.01 µM) 64.6% | viability, T/C (second compound 0.00949 µM, first compound 0.00316 µM) 79.7% | viability, T/C (second compound 0.00949 µM, first compound 0.01 µM) 61.6% | viability, T/C (second compound 0.03 µM, first compound 0.00316 µM) 82.2% | viability, T/C (second compound 0.03 µM, first compound 0.01 µM) 60.4% | viability, T/C (second compound 0.0949 µM, first compound 0.00316 µM) 77.2% | viability, T/C (second compound 0.0949 µM, first compound 0.01 µM) 52% | viability, T/C (second compound 0.3 µM, first compound 0.00316 µM) 71.6% | viability, T/C (second compound 0.3 µM, first compound 0.01 µM) 31.5%
0.0132 µM: IC50 (second compound 0.003 µM)
0.00589 µM: IC50 (second compound 0.3 µM)
0.0105 µM: IC50 (second compound 0.0949 µM)
0.0124 µM: IC50 (second compound 0.03 µM)
0.0127 µM: IC50 (second compound 0.00949 µM)
